Results on six molecules are retold here after publication PMC9855884, “Glycosylated Lipopeptides—Synthesis and Evaluation of Antimicrobial Activity and Cytotoxicity” (Biomolecules, 2023).

One series relates to E. faecium ATCC 700221. Type of series: cell-based, Enterococcus faecium. Conditions: ATCC 700221, 18 h. The procedure: (§1) The Acinetobacter baumannii ATCC BAA-1605, Enterococcus faecium ATCC 700221, Klebsiella aerogenes ATCC 13048, Klebsiella pneumoniae ATCC 700603, Pseudomonas aeruginosa ATCC 9027, Staphylococcus aureus ATCC 33591, Candida glabrata ATCC 15126, strains were acquired from the American Type Culture Collection (ATCC). All the strains were stored at −80 °C in Roti-Store cryo vials and were transferred into fresh Mueller–Hinton broth (MHB, Becton Dickinson, Warsaw, Poland) for bacteria or RPMI-1640 (Sigma-Aldrich, Steinheim, Germany) for fungi before the tests and incubated for 24 h at 37 °C. Then, the cultures were seeded on the Mueller–Hinton agar (BioMaxima, Lublin, Poland) or Sabouraud dextrose agar (SDA, BioMaxima, Lublin, Poland) plates, respectively, and incubated as just mentioned. These agar cultures were used for further microbiological assays. Cell densities for all assays were adjusted spectrophotometrically (Multiskan GO Microplate Spectrophotometer, Thermo Fisher Scientific, Vantaa, Finland) at 600 and 530 nm for bacteria and fungi, respectively.
(§2) The MICs were determined using a broth microdilution method according to the Clinical and Laboratory Standard Institute guidelines. For this purpose, initial inoculums of bacteria (5 × 10^5 CFU/mL) in MHB and yeasts (2 × 10^3 CFU/mL) in RPMI-1640 with 2% D-glucose were exposed to the ranging concentration of lipopeptides (1–512 μg/mL) and incubated at 37 °C for 18 h and 24 h, respectively. The experiments were conducted on 96-well microtiter polystyrene plates (Kartell, Italy). The growth was assessed visually after incubation and the MIC was assumed as the lowest peptide concentration at which a noticeable growth of microorganisms was inhibited. All experiments were conducted in triplicate.

Series [1] has as its system A. baumannii ATCC BAA 1605. It counts as cell-based, Acinetobacter baumannii. The settings on record: ATCC BAA 1605, 18 h. As for the experimental part:
as §1, §2

Another series has as its system P. aeruginosa ATCC 9027. Type of series: cell-based, Pseudomonas aeruginosa. The settings on record: ATCC 9027, 18 h. As for the experimental part: as §1, §2
Another series deals with K. aerogenes ATCC 13048. Type of series: cell-based, Klebsiella aerogenes. The settings on record: ATCC 13048, 18 h. As for the experimental part: as §1, §2
The test system of the next series is C. glabrata ATCC 15126. Type of series: cell-based, Candida glabrata. Conditions: ATCC 15126, 24 h. As for the experimental part:
as §1, §2

The subject of a further series is S. aureus biofilm. It counts as cell-based, Staphylococcus aureus. The settings on record: 24 h. The procedure:
as §1
(§3) The MBECs were determined as previously described, using 96-well polystyrene flat-bottom plates. For this purpose, 24 h cultures of microorganisms were diluted to obtain a final density of 5.0 × 10^5 CFU/mL and 2.0 × 10^5 CFU/mL of bacteria and fungi, respectively. Microorganisms were diluted in MHB or RPMI-1640 with 2% D-glucose (bacteria and fungi, respectively). Briefly, 100 µL of cell suspension was added into the test plates. After 24 h of incubation at 37 °C, the wells were rinsed three times with a phosphate buffer saline (PBS, pH 7.4) to remove non-adherent cells. Subsequently, 100 μL of the test compounds over the concentration range (1–512 μg/mL) were added to each well. After 24 h of incubation at 37 °C, 20 μL of a cell viability reagent was added (resazurin, 4 g/L; Sigma Aldrich, St. Louis, MO, USA). The MBEC was read after 1 h. The determined values were recorded as the lowest concentration at which the reduction of resazurin (from blue to pink) […]. All experiments were conducted in triplicate.

The subject of the next series is K. pneumoniae biofilm. It counts as cell-based, Klebsiella pneumoniae. The settings on record: 24 h. As for the experimental part:
as §1, §3

In the next series the test system is A. baumannii biofilm. Type of series: cell-based, Acinetobacter baumannii. Conditions: 24 h. As for the experimental part:
as §1, §3

A further series concerns P. aeruginosa biofilm. It counts as cell-based, Pseudomonas aeruginosa. The settings on record: 24 h. As for the experimental part:
as §1, §3

The test system of a further series is C. glabrata biofilm. Type of series: cell-based, Candida glabrata. Conditions: 24 h. As for the experimental part:
as §1, §3

The test system of series [2] is human red blood cells (RBCs). In words: Hemolysis assay. The settings on record: human RBCs 4% (v/v) in PBS, 60 min, 37 °C, absorbance 540 nm, 1–512 µg/mL; triplicate. Type of series: cell-based. The procedure:
The hemolysis assay was conducted using a procedure described previously. For this purpose, fresh human red blood cells (RBCs) with EDTA anticoagulant were washed three times with phosphate-buffer saline (PBS) using centrifugation at 800× g for 10 min and resuspended in PBS. Then, the stock solution of RBCs was added to serial dilution of peptides on 96-well polystyrene plates to reach a final volume of 100 µL with 4% concentration of erythrocytes (v/v) over the concentration range of 1–512 µg/mL of the tested compounds. The control wells for the 0% and 100% hemolysis consisted of RBCs suspended in PBS and 1% of Triton X–100, respectively. Subsequently, the plates were incubated for 60 min at 37 °C and then centrifuged at 800× g for 10 min at 4 °C (Sorvall ST 16R Centrifuge, Thermo Scientific, Osterode am Harz, Germany). After centrifugation, the supernatant was carefully […] to new microtiter plates and the release of hemoglobin was monitored through absorbance measurements at 540 nm (Multiskan™ GO Microplate Spectrophotometer, Thermo Scientific). All experiments were conducted in triplicate.
The lipopeptides were tested against human erythrocytes in order to evaluate their hemolytic activity. Moreover, selectivity indexes (SI) were calculated by dividing the HC50 by MIC. […] In some cases, glycosylation led to suppressed toxicity, e.g., a comparison of C14 peptides analogs: 1–3 and 10–12. On the other hand, an increase in toxicity of C18 analogs (7–9 vs. 16–18) was found for glycosylated USCLs. For this reason, SI was calculated to provide a correlation between antimicrobial activity and toxicity. […] Among gUSCLs: 10 and 11 with C14 fatty acid and 16–18 should be highlighted owing to their high selectivity against E. fecium and C. glabrata.

Usually MIC stands for the lowest concentration found to suppress growth. Read a high MIC as a need for much substance.

In brackets after ≈: the same amount, converted by molar mass. Where a SMILES comes first, the peptide text is derived from it. The star is where a group is joined. βGlcNAc = CC(=O)N[C@@H]1[C@@H](O)[C@H](O)[C@@H](CO)O[C@H]1*; Stearoyl = CCCCCCCCCCCCCCCCCC(=O)*

Turning to `CCCCCCCCCCCCCCCCCC(=O)N[C@@H](CO[C@@H]1O[C@H](CO)[C@@H](O)[C@H](O)[C@H]1NC(C)=O)C(=O)N[C@@H](CCCNC(=N)N)C(=O)N[C@@H](CCCNC(=N)N)C(N)=O` [Peptide 16, C18-S(GlcNAc)RR-NH2] (Stearoyl-Ser(βGlcNAc)-Arg-Arg-NH2), the MIC against E. faecium ATCC 700221 worked out at 16 µg/mL (≈ 18.1 µM); in series [1] it was 16 µg/mL (≈ 18.1 µM); with P. aeruginosa ATCC 9027, 32 µg/mL (≈ 36.1 µM); in the series with K. aerogenes ATCC 13048, 32 µg/mL (≈ 36.1 µM); in the series on C. glabrata ATCC 15126 it was 4 µg/mL (≈ 4.51 µM). In addition, the MBEC in the series on S. aureus biofilm was found to be 256 µg/mL; in the series with K. pneumoniae biofilm, 256 µg/mL; with A. baumannii biofilm, 512 µg/mL; with P. aeruginosa biofilm, 512 µg/mL; in the series with C. glabrata biofilm, 64 µg/mL. Besides, the “HC50 (hemolytic activity)” value in series [2] was determined as 77.45 ± 1.13 µg/mL.
As to `CCCCCCCCCCCCCCCCCC(=O)N[C@@H](CCCNC(=N)N)C(=O)N[C@@H](CO[C@@H]1O[C@H](CO)[C@@H](O)[C@H](O)[C@H]1NC(C)=O)C(=O)N[C@@H](CCCNC(=N)N)C(N)=O` [Peptide 17, C18-RS(GlcNAc)R-NH2] (Stearoyl-Arg-Ser(βGlcNAc)-Arg-NH2), the MIC in the series on E. faecium ATCC 700221 was determined as 8 µg/mL (≈ 9.03 µM); in [1] it was 16 µg/mL (≈ 18.1 µM); in the series on P. aeruginosa ATCC 9027, 32 µg/mL (≈ 36.1 µM); with K. aerogenes ATCC 13048, 32 µg/mL (≈ 36.1 µM); in the series on C. glabrata ATCC 15126 it was 4 µg/mL (≈ 4.51 µM). The MBEC with S. aureus biofilm is given as 128 µg/mL; with K. pneumoniae biofilm, 256 µg/mL; with A. baumannii biofilm it was 512 µg/mL; in the series on P. aeruginosa biofilm, above 512 µg/mL; in the series on C. glabrata biofilm, 64 µg/mL. In series [2], the “HC50 (hemolytic activity)” value was found to be 45.25 ± 0.59 µg/mL.
Consider `CCCCCCCCCCCCCCCCCC(=O)N[C@@H](CCCNC(=N)N)C(=O)N[C@@H](CCCNC(=N)N)C(=O)N[C@@H](CO)C(N)=O` [Peptide 9, C18-RRS-NH2] (Stearoyl-Arg-Arg-Ser-NH2), for which the MIC in the series on E. faecium ATCC 700221 stood at 8 µg/mL (≈ 11.7 µM); in series [1] it was 32 µg/mL (≈ 46.9 µM); with P. aeruginosa ATCC 9027, 64 µg/mL (≈ 93.7 µM); against K. aerogenes ATCC 13048 it was 32 µg/mL (≈ 46.9 µM); against C. glabrata ATCC 15126 it was 4 µg/mL (≈ 5.86 µM). Besides, the MBEC in the series with S. aureus biofilm is on record as 256 µg/mL; with K. pneumoniae biofilm it was 512 µg/mL; in the series with A. baumannii biofilm it was 512 µg/mL; in the series with P. aeruginosa biofilm, above 512 µg/mL; in the series with C. glabrata biofilm, 128 µg/mL. Also, the “HC50 (hemolytic activity)” value in series [2] was determined as 94.31 ± 2.64 µg/mL.
For the molecule `CCCCCCCCCCCCCCCCCC(=O)N[C@@H](CCCNC(=N)N)C(=O)N[C@@H](CO)C(=O)N[C@@H](CCCNC(=N)N)C(N)=O` [Peptide 8, C18-RSR-NH2] (Stearoyl-Arg-Ser-Arg-NH2), the MIC came out at 8 µg/mL (≈ 11.7 µM) in the series on E. faecium ATCC 700221; 64 µg/mL (≈ 93.7 µM) in series [1]; 64 µg/mL (≈ 93.7 µM) with P. aeruginosa ATCC 9027; 32 µg/mL (≈ 46.9 µM) in the series on K. aerogenes ATCC 13048; 4 µg/mL (≈ 5.86 µM) in the series on C. glabrata ATCC 15126. The MBEC in the series with S. aureus biofilm is 256 µg/mL; in the series on K. pneumoniae biofilm it was 512 µg/mL; in the series with A. baumannii biofilm, 512 µg/mL; in the series with P. aeruginosa biofilm, above 512 µg/mL; in the series on C. glabrata biofilm, 128 µg/mL. Besides, the “HC50 (hemolytic activity)” value in series [2] is on record as 335.12 ± 73.39 µg/mL.
For the molecule `CCCCCCCCCCCCCCCCCC(=O)N[C@@H](CCCNC(=N)N)C(=O)N[C@@H](CCCNC(=N)N)C(=O)N[C@@H](CO[C@@H]1O[C@H](CO)[C@@H](O)[C@H](O)[C@H]1NC(C)=O)C(N)=O` [Peptide 18, C18-RRS(GlcNAc)-NH2] (Stearoyl-Arg-Arg-Ser(βGlcNAc)-NH2), the MIC in the series with E. faecium ATCC 700221 was 8 µg/mL (≈ 9.03 µM); in [1], 32 µg/mL (≈ 36.1 µM); in the series with P. aeruginosa ATCC 9027, 32 µg/mL (≈ 36.1 µM); against K. aerogenes ATCC 13048 it was 32 µg/mL (≈ 36.1 µM); in the series on C. glabrata ATCC 15126, 4 µg/mL (≈ 4.51 µM). The MBEC in the series with S. aureus biofilm amounted to 128 µg/mL; in the series on K. pneumoniae biofilm, 128 µg/mL; with A. baumannii biofilm, 256 µg/mL; in the series with P. aeruginosa biofilm, 512 µg/mL; with C. glabrata biofilm, 128 µg/mL. For the same molecule, the “HC50 (hemolytic activity)” value in [2] was 48.04 ± 2.45 µg/mL.
Turning to `CCCCCCCCCCCCCCCCCC(=O)N[C@@H](CO)C(=O)N[C@@H](CCCNC(=N)N)C(=O)N[C@@H](CCCNC(=N)N)C(N)=O` [Peptide 7, C18-SRR-NH2] (Stearoyl-Ser-Arg-Arg-NH2), the MIC amounted to 8 µg/mL (≈ 11.7 µM) in the series on E. faecium ATCC 700221; 32 µg/mL (≈ 46.9 µM) in series [1]; 64 µg/mL (≈ 93.7 µM) against P. aeruginosa ATCC 9027; 16 µg/mL (≈ 23.4 µM) in the series with K. aerogenes ATCC 13048; 4 µg/mL (≈ 5.86 µM) with C. glabrata ATCC 15126. Also, the MBEC in the series on S. aureus biofilm is listed as 512 µg/mL; in the series on K. pneumoniae biofilm, 512 µg/mL; in the series on A. baumannii biofilm, 512 µg/mL; in the series on P. aeruginosa biofilm, 512 µg/mL; with C. glabrata biofilm, 128 µg/mL. The “HC50 (hemolytic activity)” value in series [2] is reported as 82.31 ± 1.36 µg/mL.
